# Values quoted from earlier work as cited in paper PMC3202968 (Journal of the American Chemical Society, 2010).
compound,measurement,value
"Cc1cc(C)nc(N)c1 [2-amino-4,6-dimethylpyridine]",pKa,about 7.1
